In experiment [1] the target is T1, human recombinant adrenergic α2A receptor (Homo sapiens, UniProt P08913).
T1 construct: expressed in transfected cells; host or cells: insect Sf9 cells
T1 sequence (P08913 1-465): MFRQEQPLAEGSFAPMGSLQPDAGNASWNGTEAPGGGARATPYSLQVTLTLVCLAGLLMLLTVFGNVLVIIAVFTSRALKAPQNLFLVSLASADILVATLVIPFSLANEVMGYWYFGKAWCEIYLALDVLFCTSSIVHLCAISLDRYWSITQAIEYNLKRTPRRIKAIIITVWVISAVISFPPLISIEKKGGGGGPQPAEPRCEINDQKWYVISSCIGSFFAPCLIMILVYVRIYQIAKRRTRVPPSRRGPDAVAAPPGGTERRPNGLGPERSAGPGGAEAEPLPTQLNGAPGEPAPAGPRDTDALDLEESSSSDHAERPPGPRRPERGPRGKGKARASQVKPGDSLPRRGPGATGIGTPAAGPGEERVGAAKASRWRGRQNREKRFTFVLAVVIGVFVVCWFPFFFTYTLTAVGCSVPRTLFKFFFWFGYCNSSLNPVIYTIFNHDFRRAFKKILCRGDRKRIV
Nature of the experiment: Adrenergic α2A radioligand binding ([3H]MK-912). As to conditions: 0.1 μM compound; for inhibition at 0.1 µM: read-out: Percentage inhibition of ligand binding, Adrenergic α2A; for Percentage inhibition of ligand binding, Adrenergic α2A: 0.1 µM. As for the experimental part: To evaluate in radioligand binding assays the activity of compounds of the invention, human recombinant adrenergic α2A receptor expressed in insect Sf9 cells (Uhlen, S. et al, J. Pharmacol. Exp. Ther. 271:1558, 1994) in a modified Tris-HCl buffer (50 mM Tris-HCl, pH 7.4, 12.5 mM MgCl2, 2 mM EDTA) was used. Compounds of invention were incubated with 1 nM [^3H]MK-912 for 60 min at 25° C. MK-912 is (2S-trans)-1,3,4,5′,6,6′,7,12b-octahydro-1′,3′-dimethyl-spiro[2H-benzofuro[2,3-a]quinolizine-2,4′(1′H)-pyrimidin]-2′(3′H)-one hydrochloride Non-specific binding was estimated in the presence of 10 μM WB-4101 (2-(2,6-Dimethoxyphenoxyethyl)aminomethyl-1,4-benzodioxane hydrochloride). Receptor proteins were filtered and washed, the filters were then counted to determine [^3H]MK-912 specifically bound. Compounds were screened at 1 μM or lower, using 1% DMSO as vehicle. Biochemical assay results are presented as the percent inhibition of specific binding in Table 3.

Experiment [2] deals with T2, human recombinant adrenergic α2B receptor (Homo sapiens, UniProt P18089).
T2 construct: expressed in transfected cells; host or cells: CHO-K1
T2 sequence (P18089 1-450): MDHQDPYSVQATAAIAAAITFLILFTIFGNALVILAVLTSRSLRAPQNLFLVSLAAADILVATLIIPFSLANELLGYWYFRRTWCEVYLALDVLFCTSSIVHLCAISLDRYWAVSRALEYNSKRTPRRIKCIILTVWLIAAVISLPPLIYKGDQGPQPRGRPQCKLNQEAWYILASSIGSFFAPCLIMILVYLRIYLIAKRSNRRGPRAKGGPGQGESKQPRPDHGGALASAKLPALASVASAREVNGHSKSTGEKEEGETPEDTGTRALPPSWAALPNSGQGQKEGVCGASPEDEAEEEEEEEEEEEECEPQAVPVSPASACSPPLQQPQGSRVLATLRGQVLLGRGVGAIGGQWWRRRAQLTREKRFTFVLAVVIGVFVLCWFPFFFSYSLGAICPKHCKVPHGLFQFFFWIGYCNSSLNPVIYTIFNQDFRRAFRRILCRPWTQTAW
The experiment in a line: Adrenergic α2B radioligand binding ([3H]Rauwolscine). As to conditions: for Percentage inhibition of ligand binding, Adrenergic α2B: 0.03 µM; for inhibition at 0.1 µM: 0.1 μM compound. The procedure: To evaluate in radioligand binding assays the activity of compounds of the invention, human recombinant adrenergic α2B receptor expressed in Chinese hamster ovary (CHO) K1 cells (Uhlen, S. et al, Eur. J. Pharmacol. 343(1):93, 1998) in a modified Tris-HCl buffer (50 mM Tris-HCl, pH 7.4, 12.5 mM MgCl2, 1 mM EDTA, 0.2% BSA) was used. Compounds of the invention were incubated with 2.5 nM [^3H]Rauwolscine for 60 min at 25° C. Non-specific binding was estimated in the presence of 10 μM Prazosin. Receptor proteins were filtered and washed, the filters were then counted to determine [^3H]Rauwolscine specifically bound. Compounds were screened at 1 μM or lower, using 1% DMSO as vehicle. Biochemical assay results are presented as the percent inhibition of specific binding in Table 3.

Experiment [3] concerns the target T3, rat adrenergic α1B receptor (Rattus norvegicus, UniProt P15823).
T3 construct: rat adrenergic α1B receptor obtained from Wistar Rat liver; from tissue; host or cells: Wistar rat liver
T3 sequence (P15823 1-515): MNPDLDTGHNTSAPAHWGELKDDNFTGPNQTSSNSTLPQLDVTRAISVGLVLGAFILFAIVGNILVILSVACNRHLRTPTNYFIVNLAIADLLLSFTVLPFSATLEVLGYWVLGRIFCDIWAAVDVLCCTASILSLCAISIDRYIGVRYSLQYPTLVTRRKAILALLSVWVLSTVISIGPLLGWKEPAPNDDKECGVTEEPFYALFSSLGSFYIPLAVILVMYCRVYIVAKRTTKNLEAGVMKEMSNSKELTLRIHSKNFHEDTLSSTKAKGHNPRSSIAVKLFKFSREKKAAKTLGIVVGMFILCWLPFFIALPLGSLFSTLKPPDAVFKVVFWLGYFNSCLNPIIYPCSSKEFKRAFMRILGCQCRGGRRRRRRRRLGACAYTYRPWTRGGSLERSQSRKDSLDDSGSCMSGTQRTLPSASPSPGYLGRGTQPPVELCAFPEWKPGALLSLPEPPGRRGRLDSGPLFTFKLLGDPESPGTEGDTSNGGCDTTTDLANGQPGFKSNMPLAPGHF
Nature of the experiment: Adrenergic α1B radioligand binding ([3H]Prazosin). The settings on record: 0.1 μM compound; for Percentage inhibition of ligand binding, Adrenergic α1B: 0.1 µM; for inhibition at 0.1 µM: read-out: Percentage inhibition of ligand binding, Adrenergic α1B. As for the experimental part:
To evaluate in radioligand binding assays the activity of compounds of the invention, rat adrenergic α1B receptor obtained from Wistar Rat liver (Garcia-S'ainz, J. et al, Biochem. Biophys. Res. Commun. 186:760, 1992; Michel, A. et al, Br. J. Pharmacol. 98:883, 1989) in a modified Tris-HCl buffer (50 mM Tris-HCl buffer, pH 7.4, 0.5 mM EDTA) was used. Compounds of the invention were incubated with 0.25 nM [^3H]Prazosin for 60 min at 25° C. Non-specific binding was estimated in the presence of 10 μM phentolamine. Receptor proteins were filtered and washed, the filters were then counted to determine [^3H]Prazosin specifically bound. Compounds were screened at 1 μM or lower, using 1% DMSO as vehicle. Biochemical assay results are presented as the percent inhibition of specific binding in Table 3.

Where [4] appears, read: read-out: Percentage inhibition of ligand binding, Adrenergic α2B.

In the case of `Cc1ccc2c(c1)c1c(n2CC2(O)CCCc3cnccc32)CCN(C)C1` (single isomer, unassigned) [ii-74a], the inhibition at 0.1 µM in experiment [1] is 14%. In experiment [2] (0.03 μM compound), the “Percentage inhibition of ligand binding, Adrenergic α2B” value (“Percentage inhibition … Adrenergic α2B” for short) came out at 22%. For the same compound, the “Percentage inhibition of ligand binding, Adrenergic α1B” value (shortened to “Percentage inhibition … Adrenergic α1B”) in experiment [3] was determined as 12%.

`Cc1ccc2c(c1)c1c(n2CC2(O)CCCc3cnccc32)CCN(C)C1` (single isomer, unassigned) [ii-74b]: the “Percentage inhibition of ligand binding, Adrenergic α2A” value (from here on “Percentage inhibition … Adrenergic α2A”) in experiment [1] came to 12%. The “Percentage inhibition … Adrenergic α2B” value in experiment [2] (0.03 μM compound) is on record as 69%. Further, in experiment [3], the “Percentage inhibition … Adrenergic α1B” value was determined as 83%.

Consider `Cc1ccc2c(c1)c1c(n2CC2(O)CCCc3ncccc32)CCN(C)C1` (single isomer, unassigned) [ii-112a], for which the “Percentage inhibition … Adrenergic α2A” value in experiment [1] was 15%. Also, the inhibition at 0.03 µM in experiment [2] (0.03 μM compound, read-out: Percentage inhibition of ligand binding, Adrenergic α2B) turned out to be 58%. Moreover, the “Percentage inhibition … Adrenergic α1B” value in experiment [3] worked out at 79%.

In the case of `Cc1ccc2c(c1)c1c(n2CC2(O)CCCc3ncccc32)CCN(C)C1` (single isomer, unassigned) [ii-112b], the “Percentage inhibition … Adrenergic α2A” value in experiment [1] came out at 4%. The “Percentage inhibition … Adrenergic α2B” value in experiment [2] (0.03 μM compound) was 40%. For the same compound, the “Percentage inhibition … Adrenergic α1B” value in experiment [3] was found to be 14%.

In the case of `Cc1ccc2c(c1)c1c(n2CC2(O)CCCc3ccncc32)CCN(C)C1` (single isomer, unassigned) [ii-113a], the inhibition at 0.1 µM in experiment [1] stood at 9%. Further, the “Percentage inhibition … Adrenergic α2B” value in experiment [2] (0.03 μM compound) is 23%. The “Percentage inhibition … Adrenergic α1B” value in experiment [3] was 5%.

For the compound `Cc1ccc2c(c1)c1c(n2/C=C2/CCCc3ccccc32)CCN(C)C1` [i-2], the inhibition at 0.1 µM worked out at 98% in experiment [1], 81% in experiment [2] (setting [4]) and 85% in experiment [3].

As to `Cc1ccc2c(c1)c1c(n2/C=C2\CCCc3ccccc32)CCN(C)C1` [i-3], the inhibition at 0.1 µM in experiment [1] is 92%; in experiment [2] (setting [4]) it was 57%; in experiment [3], 66%.

Usually inhibition stands for the share of the control response that was lost under treatment.

The values are drawn from US9035056B2, “Pyrido[4,3-b]indole and pyrido[3,4-b]indole derivatives and methods of use” (Medivation Technologies, Inc., priority 2011, dated 2015).
